This is an account of results in patent publication US8916551B2, “Heterocyclic compound and use thereof” (Takeda Pharmaceutical Company Limited, priority 2010, dated 2014).

The structures appear in SMILES notation.

T1 sequence (P42261 19-906 isoform P42261-2 limits assumed): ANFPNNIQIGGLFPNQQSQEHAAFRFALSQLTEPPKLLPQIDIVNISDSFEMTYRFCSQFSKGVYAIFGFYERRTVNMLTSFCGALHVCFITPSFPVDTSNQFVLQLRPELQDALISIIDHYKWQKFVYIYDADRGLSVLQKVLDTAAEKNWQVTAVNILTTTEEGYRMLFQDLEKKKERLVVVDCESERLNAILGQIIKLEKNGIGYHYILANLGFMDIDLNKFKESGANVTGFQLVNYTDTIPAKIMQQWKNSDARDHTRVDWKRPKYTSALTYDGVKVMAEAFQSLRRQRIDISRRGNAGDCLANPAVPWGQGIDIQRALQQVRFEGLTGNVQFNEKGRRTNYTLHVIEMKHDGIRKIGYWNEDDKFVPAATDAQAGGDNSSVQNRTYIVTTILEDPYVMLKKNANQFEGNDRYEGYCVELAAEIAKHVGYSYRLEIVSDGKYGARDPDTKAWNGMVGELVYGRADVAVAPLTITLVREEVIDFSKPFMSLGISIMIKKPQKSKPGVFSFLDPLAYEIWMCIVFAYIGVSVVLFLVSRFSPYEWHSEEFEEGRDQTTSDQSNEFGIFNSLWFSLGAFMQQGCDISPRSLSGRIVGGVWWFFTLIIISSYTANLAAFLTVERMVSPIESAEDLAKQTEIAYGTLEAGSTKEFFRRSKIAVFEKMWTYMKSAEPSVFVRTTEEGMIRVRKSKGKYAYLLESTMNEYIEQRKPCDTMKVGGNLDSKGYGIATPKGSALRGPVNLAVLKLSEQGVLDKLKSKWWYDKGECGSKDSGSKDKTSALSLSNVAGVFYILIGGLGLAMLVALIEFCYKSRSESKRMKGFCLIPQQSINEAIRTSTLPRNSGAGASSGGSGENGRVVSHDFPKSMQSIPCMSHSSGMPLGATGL
T1 sequence (Q9Y698 whole entry partner): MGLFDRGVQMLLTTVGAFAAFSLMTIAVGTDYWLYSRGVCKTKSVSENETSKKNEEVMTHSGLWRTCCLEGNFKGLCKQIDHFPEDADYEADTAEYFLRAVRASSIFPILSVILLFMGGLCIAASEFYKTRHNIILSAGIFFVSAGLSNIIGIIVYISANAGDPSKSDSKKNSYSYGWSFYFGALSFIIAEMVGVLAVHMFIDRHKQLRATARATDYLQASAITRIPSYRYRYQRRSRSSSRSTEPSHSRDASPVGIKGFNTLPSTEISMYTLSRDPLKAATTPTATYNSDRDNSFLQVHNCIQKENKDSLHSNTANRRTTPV

This test addresses T1, AMPA receptor (human GluR1 flip/stargazin expressed in CHO-K1 cells) (Homo sapiens, UniProt P42261).
T1 construct: expressed in transfected cells; host or cells: CHO-K1
The test is described as follows: AMPA receptor function enhancing activity using calcium influx as index. The test is classed as cell-based. As to conditions: test compound 30 μM with glutamic acid final 3 mM, change in fluorescence in 3 min, 100% = 3 mM glutamic acid + 300 μM cyclothiazide, 0% = 3 mM glutamic acid only. The text has this:
Human GluR1 flip cDNA was amplified by PCR using forward primer […] (SEQ ID NO: 1) and reverse primer […] (SEQ ID NO: 2) artificially synthesized using human brain-derived cDNA (BD Bio science) as a template. The amplified product was digested with restriction enzymes EcoRI, NotI (TAKARA SHUZO CO. LTD.), and incorporated into the same site of pcDNA3.1(+) (Invitrogen) to construct pcDNA3.1(+)/human GluR1 flip gene. Human stargazin cDNA was amplified by PCR using forward primer […] (SEQ ID NO: 3) and reverse primer […] (SEQ ID NO: 4) artificially synthesized using human hippocampus cDNA as a template. The amplified product was digested with restriction enzymes XhoI, BamHI (TAKARA SHUZO CO. LTD.), and incorporated into the same site of pcDNA3.1(−) (Invitrogen) to construct pcDNA3.1 Zeo(−)/human stargazin gene.
CHO-K1 cells passaged in a culture medium (Ham's F12 medium (Invitrogen) added with 10% inactivated fetal bovine serum (Morgate) and penicillin, streptomycin (Invitrogen)) were detached with 0.05% trypsin, 0.53 mM EDTA (Invitrogen) diluted with D-PBS(−). The detached cells were suspended in a culture medium, and recovered by a centrifugation operation at 1,000 rpm. The recovered cells were suspended again in D-PBS(−), and added to a 0.4 cm electroporation cuvette (BioRad). pcDNA3.1(+)/human GluR1 flip gene (5 μg) and pcDNA3.1 Zeo(−)/human stargazin gene (15 μg) were added, and the mixture was introduced into CHO-K1 cells using Gene Pulser II (BioRad) under the conditions of 950 μFd, […]. The introduced cells were cultured overnight in a culture medium and, the next day, plated in a 96 well plate at 250 cells/well using a selection medium (culture medium added with Zeocin (Invitrogen) to 250 μg/mL). Clones showing drug resistance were selected, and GluR1 flip/stargazin expressing clones were selected by an assay method using calcium influx as an index as shown below.
CHO-K1/GluR1 flip/stargazin expressing cells were plated on a 96 well black transparent bottom plate (Costar) at 2×10^4 cells/well, and cultured in a 37° C., CO2 incubator (SANYO Electric Co., Ltd.) for 2 days. The medium in the cell plate was removed, and assay buffer A (D-MEM (Invitrogen), 0.1% BSA (Serogical Protein), 20 mM HEPES (Invitrogen)) was added at 50 μL/well. A calcium indicator (Calcium 4 Assay Kit, Invitrogen) added with 2.5 mM probenecid (Invitrogen) was added at 50 μL/well and the well was left standing in 37° C., CO2 incubator for 1 hr. The cell plate was set in CellLux (PerkinElmer), a mixture (50 μL) of 9 mM glutamic acid diluted with assay buffer B (HBSS (Invitrogen), 0.1% BSA, 20 mM HEPES) (final concentration 3 mM) and a test compound (test compound concentration 30 μM) was added, and the amount of change in fluorescence level in 3 min was measured. In the definition here, the amount of change in fluorescence level of well added with glutamic acid at final concentration 3 mM and 300 μM cyclothiazide (TOCRIS) is 100%, the amount of change in fluorescence level of well added only with glutamic acid at final concentration 3 mM is 0%, and the compound activity was calculated according to the following formula. activity(%)=(X−C)/(T−C)×100 T: amount of change in fluorescence level of well added with glutamic acid at final concentration 3 mM and 300 μM cyclothiazide C: amount of change in fluorescence level of well added only with glutamic acid at final concentration 3 mM X: amount of change in fluorescence level of well added with test compound
With `O=S1(=O)CCN2CCCC(c3ccc(-c4ccccc4)c(F)c3)C2=N1` (stereo not drawn) [Example 97, 9-(2-fluorobiphenyl-4-yl)-3,4,6,7,8,9-hexahydropyrido[2,1-c][1,2,4]thiadiazine 2,2-dioxide], the “activity (%)” value was found to be 86%.
As to `COc1cccc(Oc2ccc(C3CCCN4CCS(=O)(=O)N=C34)cc2)c1` (stereo not drawn) [Example 98, 9-[4-(3-methoxyphenoxy)phenyl]-3,4,6,7,8,9-hexahydropyrido[2,1-c][1,2,4]thiadiazine 2,2-dioxide], the “activity (%)” value came to 71%.
For `CC1CC(c2ccc(Oc3ccccc3)cc2)C2=NS(=O)(=O)CCN2C1` (stereo not drawn) [Example 99, 7-methyl-9-(4-phenoxyphenyl)-3,4,6,7,8,9-hexahydropyrido[2,1-c][1,2,4]thiadiazine 2,2-dioxide], the “activity (%)” value is 73%.
In the case of `Cc1cc(C2=CC=CN3CCS(=O)(=O)N=C23)ccc1-c1ccccc1` [Example 101, 9-(2-methylbiphenyl-4-yl)-3,4-dihydropyrido[2,1-c][1,2,4]thiadiazine 2,2-dioxide], the “activity (%)” value came out at 84%.
Under `Cc1cc(C2CCCN3CCS(=O)(=O)N=C23)ccc1-c1ccccc1` (stereo not drawn) [Example 102, 9-(2-methylbiphenyl-4-yl)-3,4,6,7,8,9-hexahydropyrido[2,1-c][1,2,4]thiadiazine 2,2-dioxide] stands 71%.
Under `Cc1cc(C2CCCN3CCS(=O)(=O)N=C23)ccc1-c1ccccc1` (stereo not drawn) [Example 103, 9-(2-methylbiphenyl-4-yl)-3,4,6,7,8,9-hexahydropyrido[2,1-c][1,2,4]thiadiazine 2,2-dioxide] stands 81%.
As to `Cc1ccc(-c2ccc(C3CCCN4CCS(=O)(=O)N=C34)cc2)cc1` (stereo not drawn) [Example 105, 9-(4′-methylbiphenyl-4-yl)-3,4,6,7,8,9-hexahydropyrido[2,1-c][1,2,4]thiadiazine 2,2-dioxide], the “activity (%)” value came out at 87%.
For the molecule `COc1cccc(-c2ccc(C3CCCN4CCS(=O)(=O)N=C34)cc2)c1` (stereo not drawn) [Example 106, 9-(3′-methoxybiphenyl-4-yl)-3,4,6,7,8,9-hexahydropyrido[2,1-c][1,2,4]thiadiazine 2,2-dioxide], the “activity (%)” value amounted to 98%.
As for `Cc1ccc(Oc2ccc(C3CCCN4CCS(=O)(=O)N=C34)cc2)cc1` (stereo not drawn) [Example 108, 9-[4-(4-methylphenoxy)phenyl]-3,4,6,7,8,9-hexahydropyrido[2,1-c][1,2,4]thiadiazine 2,2-dioxide], the figure is 68%; as for `Cc1ccc(Oc2ccc(C3CCCN4CCS(=O)(=O)N=C34)cc2)cc1` (stereo not drawn) [Example 109, 9-[4-(4-methylphenoxy)phenyl]-3,4,6,7,8,9-hexahydropyrido[2,1-c][1,2,4]thiadiazine 2,2-dioxide], 88%; as for `Cc1cc(Oc2ccc(C3=CC=CN4CCS(=O)(=O)N=C34)cc2)ccc1F` [Example 111, 9-[4-(4-fluoro-3-methylphenoxy)phenyl]-3,4-dihydropyrido[2,1-c][1,2,4]thiadiazine 2,2-dioxide], 58%.
As to `Cc1cc(Oc2ccc(C3CCCN4CCS(=O)(=O)N=C34)cc2)ccc1F` (stereo not drawn) [Example 112, 9-[4-(4-fluoro-3-methylphenoxy)phenyl]-3,4,6,7,8,9-hexahydropyrido[2,1-c][1,2,4]thiadiazine 2,2-dioxide], the “activity (%)” value was determined as 79%.
As for `Cc1cc(Oc2ccc(C3CCCN4CCS(=O)(=O)N=C34)cc2)ccc1F` (stereo not drawn) [Example 113, 9-[4-(4-fluoro-3-methylphenoxy)phenyl]-3,4,6,7,8,9-hexahydropyrido[2,1-c][1,2,4]thiadiazine 2,2-dioxide], the figure is 86%; as for `Cc1ccccc1Oc1ccc(C2=CC=CN3CCS(=O)(=O)N=C23)cc1` [Example 115, 9-[4-(2-methylphenoxy)phenyl]-3,4-dihydropyrido[2,1-c][1,2,4]thiadiazine 2,2-dioxide], 80%; as for `Cc1ccccc1Oc1ccc(C2CCCN3CCS(=O)(=O)N=C23)cc1` (stereo not drawn) [Example 116, 9-[4-(2-methylphenoxy)phenyl]-3,4,6,7,8,9-hexahydropyrido[2,1-c][1,2,4]thiadiazine 2,2-dioxide], 69%.
As for `Cc1cccc(Oc2ccc(C3=CC=CN4CCS(=O)(=O)N=C34)cc2)c1` [Example 117, 9-[4-(3-methylphenoxy)phenyl]-3,4-dihydropyrido[2,1-c][1,2,4]thiadiazine 2,2-dioxide], the figure is 90%; as for `Cc1cccc(Oc2ccc(C3CCCN4CCS(=O)(=O)N=C34)cc2)c1` (stereo not drawn) [Example 118, 9-[4-(3-methylphenoxy)phenyl]-3,4,6,7,8,9-hexahydropyrido[2,1-c][1,2,4]thiadiazine 2,2-dioxide], 79%; as for `Cc1cccc(Oc2ccc(C3CCCN4CCS(=O)(=O)N=C34)cc2)c1` (stereo not drawn) [Example 119, 9-[4-(3-methylphenoxy)phenyl]-3,4,6,7,8,9-hexahydropyrido[2,1-c][1,2,4]thiadiazine 2,2-dioxide], 92%.
Turning to `Cc1cc(C(F)(F)F)ccc1Oc1ccc(C2=CC=CN3CCS(=O)(=O)N=C23)cc1` [Example 121, 9-{4-[2-methyl-4-(trifluoromethyl)phenoxy]phenyl}-3,4-dihydropyrido[2,1-c][1,2,4]thiadiazine 2,2-dioxide], the “activity (%)” value amounted to 71%.
Under `Cc1cc(C(F)(F)F)ccc1Oc1ccc(C2CCCN3CCS(=O)(=O)N=C23)cc1` (stereo not drawn) [Example 122, 9-{4-[2-methyl-4-(trifluoromethyl)phenoxy]phenyl}-3,4,6,7,8,9-hexahydropyrido[2,1-c][1,2,4]thiadiazine 2,2-dioxide] stands 58%; under `Cc1cc(C(F)(F)F)ccc1Oc1ccc(C2CCCN3CCS(=O)(=O)N=C23)cc1` (stereo not drawn) [Example 123, 9-{4-[2-methyl-4-(trifluoromethyl)phenoxy]phenyl}-3,4,6,7,8,9-hexahydropyrido[2,1-c][1,2,4]thiadiazine 2,2-dioxide], 57%; under `COc1ccc2cc(C3=CC=CN4CCS(=O)(=O)N=C34)ccc2c1` [Example 126, 9-(6-methoxynaphthalen-2-yl)-3,4-dihydropyrido[2,1-c][1,2,4]thiadiazine 2,2-dioxide], 72%.
As for `COc1ccc2cc(C3CCCN4CCS(=O)(=O)N=C34)ccc2c1` (stereo not drawn) [Example 127, 9-(6-methoxynaphthalen-2-yl)-3,4,6,7,8,9-hexahydropyrido[2,1-c][1,2,4]thiadiazine 2,2-dioxide], the figure is 79%; as for `COc1ccc2cc(C3CCCN4CCS(=O)(=O)N=C34)ccc2c1` (stereo not drawn) [Example 128, 9-(6-methoxynaphthalen-2-yl)-3,4,6,7,8,9-hexahydropyrido[2,1-c][1,2,4]thiadiazine 2,2-dioxide], 98%; as for `COc1ccc2cc(C3CCCN4CCS(=O)(=O)N=C34)ccc2c1` (stereo not drawn) [Example 129, 9-(6-methoxynaphthalen-2-yl)-3,4,6,7,8,9-hexahydropyrido[2,1-c][1,2,4]thiadiazine 2,2-dioxide], 100%.
Take `CCc1cccc(Oc2ccc(C3=CC=CN4CCS(=O)(=O)N=C34)cc2)c1` [Example 130, 9-[4-(3-ethylphenoxy)phenyl]-3,4-dihydropyrido[2,1-c][1,2,4]thiadiazine 2,2-dioxide]: the “activity (%)” value was found to be 69%.
`CCc1cccc(Oc2ccc(C3CCCN4CCS(=O)(=O)N=C34)cc2)c1` (stereo not drawn) [Example 131, 9-[4-(3-ethylphenoxy)phenyl]-3,4,6,7,8,9-hexahydropyrido[2,1-c][1,2,4]thiadiazine 2,2-dioxide]: the “activity (%)” value is reported as 58%.
